Converted amounts (≈) assume the structure as drawn. Where two headings read alike, the source gives them in different places.
What was measured:
3T3 cells = assay: Cell growth inhibition bioassay (sulforhodamine B); type: cell-based, mouse; conditions: 48 h, SRB
Procedure: (§1) The cytotoxicity of compounds was assayed as follows. […] Appropriate solvent controls were tested for comparison. The percent inhibition of cell growth relative to the control was evaluated colorimetrically using a sulforhodamine B dye by comparison to the control. The calorimetric procedure followed that published in Skehan et al., J. Nat. Cancer Inst., […], pp. 1107-1112 (1990) and Boyd & Paull, Drug Dev. Res., Vol. 34, pp. 91-109 (1995). […] The cell lines are: 3T3 cells are BALB/3T3 clone A31 embryonic mouse fibroblast cells; H460 cells are human large cell lung cancer cells; DU145 cells are human prostate carcinoma cells; MCF-7 cells are human breast adenocarcinoma cells; M-14 cells are human melanoma cells; HT-29 cells are human colon adenocarcinoma cells; PC3 cells are human prostate adenocarcinoma cells; K562 cells are human chronic myelogenous leukemia cells; and VERO cells are African Green Monkey kidney epithelial cells.

DU145 cells = assay: Cell growth inhibition bioassay (sulforhodamine B); type: cell-based, human; conditions: 48 h, SRB
Procedure: as §1

H460 cells = assay: Cell growth inhibition bioassay (sulforhodamine B); type: cell-based, human; conditions: 48 h, SRB
Procedure: as §1

HT-29 cells = assay: Cell growth inhibition bioassay (sulforhodamine B); type: cell-based, human; conditions: 48 h, SRB
Procedure: as §1

K562 cells = assay: Cell growth inhibition bioassay (sulforhodamine B); type: cell-based, human; conditions: 48 h, SRB
Procedure: as §1

M-14 cells = assay: Cell growth inhibition bioassay (sulforhodamine B); type: cell-based, human; conditions: 48 h, SRB
Procedure: as §1

MCF-7 cells = assay: Cell growth inhibition bioassay (sulforhodamine B); type: cell-based, human; conditions: 48 h, SRB
Procedure: as §1

VERO cells [1] = assay: Cell growth inhibition bioassay (sulforhodamine B); type: cell-based, African Green Monkey; conditions: 48 h, SRB
Procedure: as §1

M. tuberculosis H37Rv = assay: Conventional aerobic (MABA) culture assay, luminescence MIC; type: cell-based, Mycobacterium tuberculosis; conditions: aerobic, 7 days, H37Rv
peritoneal macrophages = assay: Toxicity to peritoneal macrophages (Trypan Blue count); type: cell-based, BALB/C mouse
Procedure: Peritoneal macrophages were prepared as follows. Non-inflammatory macrophages (10^6) were collected from each BALB/C mouse. The cells adhered at 37° C. after 2 h under 5% CO2 in a CO2 incubator. The plates were then rinsed two to three times with 0.5 mL of RPMI+buffer MOPS without fetal calf serum to eliminate non-adhering cells. The supernatant on the plates was replaced by fresh medium (RPMI+glutamine+FCS+antibiotics), 0.5 mL of medium per well. To determine the toxicity of the compounds to macrophages, dilutions of compounds were added on a part of the macrophages prepared above. […] The medium was then removed and 1 μL of sterile Trypan Blue was added. Cover glasses N° 1 were left where cells were plated and then the number of macrophages in a microscope was determined with a haemocytometer. All experiments were performed in triplicate.

[2] = system: axenic amastigotes of L. amazonensis (strain MHOM/BR/76/LTB-012); conditions: read-out: L. amazonensis IC50; Table 8b
VERO cells [3] = assay: Cytotoxicity on VERO cells (MTT), anti-T. cruzi study; conditions: for IC50: Chlorocebus sabaeus, Vero
[4] = system: Trypanosoma cruzi (Tulahuen C4); assay: In vitro anti-T. cruzi activity (β-galactosidase CPRG colorimetric assay in VERO monolayer); type: cell-based; conditions: Trypanosoma cruzi, TULAHUEN, Vero; for inhibition at 10 µg/mL: 120 h, 10 μg/mL of each compound, 120 hours, read-out: T. cruzi Inhib. (%)
[5] = system: axenic amastigotes of L. amazonensis (strain MHOM/BR/76/LTB-012); assay: microbe, parasite or virus in culture; conditions: Leishmania amazonensis, 72 h, read-out: IC50 L. amazonensis
[6] = Cytotoxicity on VERO cells (MTT), anti-T. cruzi study; conditions: African green monkey
[7] = Table 2, read-out: IC50 - T. cruzi
[8] = Table 3, read-out: IC50 T. cruzi
[9] = VERO cells, IC50 - VERO Cytotoxicity, Table 2
[10] = Mus musculus, Peritoneal macrophage, 48 h, Table 7, read-out: IC50 Macrophage

Structure (SMILES)	inhibition at 10 µg/mL [4]	IC50 [4, 7]	IC50 [4, 8]	IC50 [5]	IC50 [6, 9]	IC50 (VERO cells [3]; read-out: IC50 VERO, Table 3)	IC50 (peritoneal macrophages; [10])	further results
Cc1ccc(C=NNc2ncnc3sc4c(c23)CCCC4)cc1 [II-05]								GI50 in indicated cell line: 3T3 (3T3 cells): 12.1 µg/mL (≈ 37.5 µM); GI50 in indicated cell line: DU145 (DU145 cells): >62.5 µg/mL; GI50 in indicated cell line: H460 (H460 cells): 42.9 µg/mL (≈ 133 µM); GI50 in indicated cell line: HT-29 (HT-29 cells): >62.5 µg/mL; GI50 in indicated cell line: K562 (K562 cells): 2.3 µg/mL (≈ 7.13 µM); GI50 in indicated cell line: M-14 (M-14 cells): >62.5 µg/mL; GI50 in indicated cell line: MCF-7 (MCF-7 cells): 4.2 µg/mL (≈ 13 µM); GI50 in indicated cell line: VERO (VERO cells [1]): 10.0 µg/mL (≈ 31 µM); MIC MABA (M. tuberculosis H37Rv): >100 µg/mL; IC50 (peritoneal macrophages): 6.3 µM; IC50 [2]: 13.7 µM; Cytotoxicity VERO Lab B (VERO cells [3]; Lab B): 11.0
C=CCOc1cc(OC)c(C(=O)/C=C/c2ccc(O)cc2)c(OCC=C)c1 [Compound I-09, (2E)-1-[2-Methoxy-4,6-bis(2-propenyloxy)phenyl]-3-(4-hydroxyphenyl)-2-propen-1-one]	52.6%	7.44 µg/mL	20.3 µM	85.2 µM	28 µg/mL (≈ 76.4 µM)	76.4 µM		
C=CCOc1cc(OC)c(C(=O)/C=C/c2ccc(Cl)cc2)c(OCC=C)c1 [Compound I-14, (2E)-3-(4-Chlorophenyl)-1-[2-methoxy-4,6-bis(2-propenyloxy)phenyl]-2-propen-1-one]	66.3%	3.3 µg/mL	8.6 µM	9.4 µM	4 µg/mL (≈ 10.4 µM)	10.4 µM	13 µM	
C=CCOc1cc(OC)c(C(=O)/C=C/c2ccccc2F)c(OCC=C)c1 [Compound I-15, (2E)-3-(2-Fluorophenyl)-1-[2-methoxy-4,6-bis(2-propenyloxy)phenyl]-2-propen-1-one]	66.5%	2.29 µg/mL	6.2 µM	9.5 µM	6 µg/mL (≈ 16.3 µM)	16.3 µM	13.3 µM	
C=CCOc1cc(OC)c(C(=O)/C=C/c2ccccc2Br)c(OCC=C)c1 [Compound I-16]	63.4%	5.95 µg/mL	13.9 µM	7.9 µM				IC50 (peritoneal macrophages; Mus musculus, Peritoneal macrophage, 48 h, read-out: IC50 Macrophage): 5.4 µM; IC50 [6]: 6 µg/mL (≈ 14 µM); IC50 (VERO cells [3]; read-out: IC50 VERO): 13.9 µM
C=CCOc1cc(OC)c(C(=O)/C=C/c2cc(OC)c(OC)c(OC)c2)c(OCC=C)c1 [Compound I-20, (2E)-1-[2-Methoxy-4,6-bis(2-propenyloxy)phenyl]-3-(3,4,5-trimethoxyphenyl)-2-propen-1-one]	76.1%	1.5 µg/mL	3.4 µM	8.2 µM	18 µg/mL (≈ 40.9 µM)	40.9 µM	12 µM	
C=CCOc1cc(OC)c(C(=O)/C=C/c2ccc(C(F)(F)F)cc2)c(OCC=C)c1 [Compound I-12, (2E)-1-[2-Methoxy-4,6-bis(2-propenyloxy)phenyl]-3-[4-(trifluoromethyl)phenyl]-2-propen-1-one]	64.2%	6.53 µg/mL	15.6 µM	128 µM	3 µg/mL (≈ 7.17 µM)	7.2 µM		
C=CCOc1cc(OC)c(C(=O)/C=C/c2ccc(OC)cc2OC)c(OCC=C)c1 [Compound I-17, (2E)-3-(2,4-Dimethoxyphenyl)-1-[2-methoxy-4,6-bis(2-propenyloxy)phenyl]-2-propen-1-one]	67.8%	5.38 µg/mL	13.1 µM	134 µM	38 µg/mL (≈ 92.6 µM)	92.6 µM		
C=CCOc1cc(OC)c(C(=O)/C=C/c2ccc([N+](=O)[O-])cc2)c(OCC=C)c1 [Compound I-13, (2E)-1-[2-Methoxy-4,6-bis(2-propenyloxy)phenyl]-3-(4-nitrophenyl)-2-propen-1-one]	68.6%	1.62 µg/mL	4.1 µM	8.3 µM	5 µg/mL (≈ 12.6 µM)	12.6 µM	13.2 µM	
C=CCOc1cc(OC)c(C(=O)/C=C/c2cccc(OC)c2)c(OCC=C)c1 [Compound I-11, (2E)-1-[2-Methoxy-4,6-bis(2-propenyloxy)phenyl]-3-(3-methoxyphenyl)-2-propen-1-one]	72.4%	5.37 µg/mL	14.2 µM	8.7 µM	54 µg/mL (≈ 142 µM)	142 µM	13.1 µM	
C=CCOc1cc(OC)c(C(=O)/C=C/c2ccccc2)c(OCC=C)c1 [Compound I-08, (2E)-1-[2-Methoxy-4,6-bis(2-propenyloxy)phenyl]-3-(phenyl)-2-propen-1-one]	71.5%	6.7 µg/mL	17.1 µM	9.4 µM	6 µg/mL (≈ 17.1 µM)		14.8 µM	IC50 (VERO cells [3]; read-out: IC50 VERO): 17.1 µM
C=CCOc1cc(OC)c(C(=O)/C=C/c2cc(OCC=C)c(Br)c(OCC=C)c2)c(OCC=C)c1 [Compound I-25, (2E)-3-(3,5-Bis(2-propenyloxy)-4-bromophenyl)-1-[2-methoxy-4,6-bis(2-propenyloxy)phenyl]-2-propen-1-one]	51.2%	3.73 µg/mL	6.9 µM	> 180 µM	52 µg/mL (≈ 96 µM)	96.3 µM		
C=CCOc1cc(OC)c(C(=O)/C=C/c2ccncc2)c(OCC=C)c1 [Compound I-26, (2E)-1-[2-Methoxy-4,6-bis(2-propenyloxy)phenyl]-3-(4-pyridinyl)-2-propen-1-one]	73.6%	0.52 µg/mL	1.5 µM	0.6 µM	1 µg/mL (≈ 2.85 µM)	2.8 µM		
C=CCOc1cc(OC)c(C(=O)/C=C/c2ccco2)c(OCC=C)c1 [Compound I-28, (2E)-3-(2-furanyl)-1-[2-methoxy-4,6-bis(2-propenyloxy)phenyl]-2-propen-1-one]	59.1%	4.14 µg/mL	12.2 µM	> 300 µM	65 µg/mL (≈ 191 µM)	191 µM		
C=CCOc1cc(OC)c(C(=O)/C=C/c2ccc(F)cc2)c(OCC=C)c1 [Compound I-23, (2E)-3-(4-Fluorophenyl)-1-[2-methoxy-4,6-bis(2-propenyloxy)phenyl]-2-propen-1-one]	66.5%	5.27 µg/mL	14.3 µM	9.5 µM	5 µg/mL (≈ 13.6 µM)	13.6 µM	13.8 µM	
